{
  "source": "patent US20240400972A1",
  "about": "“Antifouling Composition and Process for Production Thereof” (priority 2015, published 2024)",
  "key": {"Strain PF-11": {"system": "Strain PF-11", "format": "cell-based, Pseudomonas putida", "conditions": "CLSI standards, EUCAST resistance breakpoints", "experimental": "MICS (Minimum Inhibitory Concentration) was determined by agar dilution and disk diffusion according to CLSI standards (CLSI, M02-A10; CLSI, M100-S21). Briefly, LA plates were prepared supplemented with serial dilutions of the antibiotic to be tested to determine the MIC. The lowest antibiotic concentration preventing growth of the strain is considered the MIC value. The strain Escherichia coli ATCC 25922 was used as control strain, as recommended."}, "[1]": {"system": "sea lice larvae and copepodids", "assay": "Sea lice larvae and copepodids viability bioassay", "format": "in vivo, Lepeophtheirus salmonis salmonis", "conditions": "70 ppm, positive control", "experimental": "The assay consisted on incubating sea lice (Lepeophtheirus salmonis salmonis) larvae and copepodids with PF-11 secretome in order to evaluate the viability of the larvae and copepodids compared to a blank control. Sodium hypocholorite (NaoCl), known to kill the larvae within 40 min at 70 ppm, was used as a positive control. Larvae were obtained by sedating salmon sea lice with Benzocain, harvesting egg strings with tweezers, and transferring the strings to a water bath placed in an incubator. Inside the incubator, the water was continuously changed throughout the incubation period. When the larvae were developed, they were removed from the incubator and used in the bioassay. Copepodids were developed from egg strings from sea lice as described for larvae. Seawater containing louse larvae and copepodids was placed in a petri dish and PF-11 secretome was added to the final pretended concentration. Larvae and copepodids in seawater with no added compounds were also used for comparison. The positive control was NaOCl at 70 ppm. The larvae and copepodids viability was checked over time. An evaluation of larvae viability was performed and compared to the viability in the blank controls. The viability in the pure seawater control and the medium blank control was monitored and compared and remained the same throughout the experiment."}, "[2]": {"system": "sea lice larvae and copepodids", "conditions": "70 ppm; cited from earlier work"}, "[3]": {"system": "extracellular proteases of PF-11 and NTC secretomes", "format": "biochemical", "conditions": "10 mM inhibitor, relatively to non-treated control", "method": "Briefly, 12% SDS-polyacrylamide gels (Laemmli 1970) were co-polymerized with 1% casein or gelatin at 4° C. Non reducing loading buffer (62.5 mM Tris, 2% SDS, 10% glycerol, 0.001% bromophenol blue) was added to secretome samples prior to loading. Electrophoresis was performed at 4° C. and 100 V until the bromophenol dye reached the bottom of the gel. After electrophoresis, gels were rinsed two times in 2.5% (v/v) Triton X-100, 30 min each, for SDS removal, followed by three washes, 5 min each, in deionized water. Gels were then incubated in activation buffer (0.1M Tris-HCl, 0.01M CaCl2, pH 8), at 37° C. for enzyme renaturation and subsequent proteolytic activity. The gels were washed three times, 5 min each, in deonized water prior to incubation for 1 h in Coomassie Brilliant Blue R-250. […] Protease activity was visible as clear bands on a blue background. […] Protease inhibition by phenyl methyl sulfonyl fluoride (PMSF) and EDTA was determined as described by Bertolini and Rohovec (Bertolini and Rohovec 1992).\nFurther evaluations of the type of proteases present in the extracellular protease producers were performed by selective inhibition of serine proteases by PMSF and of metallo-proteases by EDTA."}},
  "data": [
    {"smiles": "CO[C@@]1(NC(=O)Cc2cccs2)C(=O)N2C(C(=O)O)=C(COC(N)=O)CS[C@@H]21", "note": "[cefoxitine]", "values": [
      {"measurement": "susceptibility of strain PF-11", "setting": "Strain PF-11", "result": "resistant"}
    ]},
    {"smiles": "CC1(C)S[C@@H]2[C@H](NC(=O)[C@H](N)c3ccc(O)cc3)C(=O)N2[C@H]1C(=O)O", "note": "[amoxycillin]", "values": [
      {"measurement": "susceptibility of strain PF-11", "setting": "Strain PF-11", "result": "resistant"}
    ]},
    {"smiles": "CC1(C)S[C@@H]2[C@H](NC(=O)[C@H](N)c3ccccc3)C(=O)N2[C@H]1C(=O)O", "note": "[ampicilin]", "values": [
      {"measurement": "susceptibility of strain PF-11", "setting": "Strain PF-11", "result": "resistant"}
    ]},
    {"smiles": "[Na+].[O-]Cl", "note": "[NaOCl, Sodium hypocholorite]", "values": [
      {"measurement": "required time to become 100% effective", "setting": "[1]", "result": 20, "unit": "min"},
      {"measurement": "time to kill the larvae", "setting": "[2]", "result": "≤ 40", "unit": "min"}
    ]},
    {"smiles": "O=C(O)CN(CCN(CC(=O)O)CC(=O)O)CC(=O)O", "note": "[EDTA]", "values": [
      {"measurement": "inhibition of proteolytic activity of PF-11 and NTC secretomes", "setting": "[3]", "result": "strongly inhibited"}
    ]},
    {"smiles": "CC(C)(O/N=C(\\C(=O)N[C@@H]1C(=O)N2C(C(=O)[O-])=C(C[n+]3ccccc3)CS[C@H]12)c1csc(N)n1)C(=O)O", "note": "[ceftazidime]", "values": [
      {"measurement": "susceptibility of strain PF-11", "setting": "Strain PF-11", "result": "resistant"}
    ]},
    {"smiles": "CO/N=C(\\C(=O)N[C@@H]1C(=O)N2C(C(=O)O)=C(COC(C)=O)CS[C@H]12)c1csc(N)n1", "note": "[cefotaxime]", "values": [
      {"measurement": "susceptibility of strain PF-11", "setting": "Strain PF-11", "result": "resistant"}
    ]},
    {"smiles": "C[C@H]1[C@H](NC(=O)/C(=N\\OC(C)(C)C(=O)O)c2csc(N)n2)C(=O)N1S(=O)(=O)O", "note": "[aztreonam]", "values": [
      {"measurement": "susceptibility of strain PF-11", "setting": "Strain PF-11", "result": "resistant"}
    ]},
    {"smiles": "O=S(=O)(F)Cc1ccccc1", "note": "[PMSF, phenyl methyl sulfonyl fluoride]", "values": [
      {"measurement": "inhibition of proteolytic activity of PF-11 and NTC secretomes", "setting": "[3]", "result": "significantly lower inhibitory effects"}
    ]}
  ]
}
